Test system: HSV-1
Assay: JQ1 reactivation (shedding) mouse model
Type: in vivo, mice
Conditions: for shedding of HSV from mucosal surfaces: 50 mg/kg
Method: FIG. 19. Schematic for JQ1 reactivation experiment. Latent infected mice were divided into three experimental groups to determine the effect of JQ1 on HSV reactivation. As illustrated in the figure, Group 1 and Group 2 were JQ1 groups that received a 50 mg/kg intraperitoneal injection of JQ1. Group 3 was the control group, i.e., no JQ1 injection. Group 1 mice received two injections, the first JQ1 injection at 0 hrs and the second JQ1 injection at 12 hrs. Group 2 mice received one injection at 0 hrs. Group 3 mice received one control injection at 0 hrs. To determine shedding from mucosal surfaces, as an indicator of HSV reactivation, mice were swabbed at 0 hrs (control) and this swab was compared to swabs taken at 24 hours, 48 hours, and 72 hours.
To begin, the mouse model for BET induced shedding was verified. In this model, latent infected mice were divided into three experimental groups to determine the effect of the BET inhibitor, JQ1, on HSV-1 reactivation. FIG. 19. As illustrated, Group 1 and Group 2 were JQ1 groups that received 50 mg/kg intraperitoneal injection of JQ1. Group 3 was the control group, i.e., no JQ1 injection. Group 1 mice received two injections, the first JQ1 injection at 0 hrs and the second JQ1 injection at 12 hrs. Group 2 mice received one injection at 0 hrs. Group 3 mice received one control injection at 0 hrs. To determine shedding from mucosal surfaces, as an indicator of HSV-1 reactivation, mice were swabbed at 0 hrs (control) and this swab was compared to swabs taken at 24 hours, 48 hours, and 72 hours. […] FIG. 20B. […] Compare the onset and duration of viral shedding in JQ1 double dose to JQ1 single dose.

Cc1sc2c(c1C)C(c1ccc(Cl)cc1)=N[C@@H](CC(=O)OC(C)(C)C)c1nnc(C)n1-2 [JQ1, tert-butyl (S)-2-(4-(4-chlorophenyl)-2,3,9-trimethyl-6H-thieno[3,2-f][1,2,4]triazolo[4,3-a][1,4]diazepin-6-yl)acetate]
time of peak shedding following JQ1 injection (single dose 50 mg/kg intraperitoneal): 2 days | shedding of HSV from mucosal surfaces (single dose 50 mg/kg intraperitoneal at 0 hrs, swabs 24, 48, 72 hours): Shedding was detected | shedding of HSV from mucosal surfaces (two doses 50 mg/kg intraperitoneal at 0 hrs and 12 hrs): Shedding was also detected

— patent US20240301372A1, “TREATMENT FOR HSV-1 USING A MEGANUCLEASE” (priority 2021, published 2024)
